Test results published in ChEMBL document CHEMBL4665764, “Synthesis and Biological Evaluation of Celastrol Derivatives as Potential Immunosuppressive Agents” (J Nat Prod, 2020).
One block for each compound: values may come before it. Activity calls are given as the source filed them. The rule behind the calls is not given here.

Columns and labels:
[1] = Induction of apoptosis in Con A-induced BALB/c mouse T cell assessed as early apoptotic cells at 0.01 uM after 48 hrs by Annexin V-FITC/propidium iodide staining based FACS assay (reference value: 26.5%); type: functional, T cell line
[2] = Cytotoxicity against BALB/c mouse T cell assessed as reduction in cell viability after 48 hrs by CCK8 assay; type: tissue-based, T cell line; details: BALB/c mouse T cells
[3] = Anti-inflammatory activity in BALB/c mouse T cell assessed as assessed as TNF-alpha level at 0.01 uM after 48 hrs by ELISA (reference value: 375.8 +/- 19.6 pg/ml); type: functional, T cell line
T cell line [4] = assay: Induction of apoptosis in BALB/c mouse T cell assessed as assessed as increase in caspase 3 >=1 uM; type: functional, tissue-based; details: dose microM >=1
[5] = Anti-inflammatory activity in BALB/c mouse T cell assessed as assessed as IL-2 level at 0.1 uM after 48 hrs by ELISA (reference value: 152.9 +/- 8.7 pg/ml); type: functional, T cell line
[6] = Anti-inflammatory activity in BALB/c mouse T cell assessed as assessed as IL-4 level at 0.01 uM after 48 hrs by ELISA (reference value: 167.8 +/- 9.4 pg/ml); type: functional, T cell line
[7] = Anti-inflammatory activity in BALB/c mouse T cell assessed as assessed as IL-4 level at 0.1 uM after 48 hrs by ELISA (reference value: 167.8 +/- 9.4 pg/ml); type: functional, T cell line
[8] = Anti-inflammatory activity in BALB/c mouse T cell assessed as assessed as TNF-alpha level at 0.1 uM after 48 hrs by ELISA (reference value: 375.8 +/- 19.6 pg/ml); type: functional, T cell line
[9] = Induction of apoptosis in Con A-induced BALB/c mouse T cell assessed as early apoptotic cells at 0.1 uM after 48 hrs by Annexin V-FITC/propidium iodide staining based FACS assay (reference value: 26.5%); type: functional, T cell line
[10] = Anti-inflammatory activity in BALB/c mouse T cell assessed as assessed as IL-2 level at 0.01 uM after 48 hrs by ELISA (reference value: 152.9 +/- 8.7 pg/ml); type: functional, T cell line
[11] = Induction of apoptosis in Con A-induced BALB/c mouse T cell assessed as early apoptotic cells at 1 uM after 48 hrs by Annexin V-FITC/propidium iodide staining based FACS assay (reference value: 26.5%); type: functional, T cell line
[12] = Induction of apoptosis in Con A-induced BALB/c mouse T cell assessed as necrotic cells at 0.01 uM after 48 hrs by Annexin V-FITC/propidium iodide staining based FACS assay (reference value: 2.9%); type: functional, T cell line
[13] = Selectivity index, ratio of CC50 for cytotoxicity against BALB/c mouse T cell to IC50 for antiproliferative activity against Con A-induced BALB/c mouse T cell; set-up: species or system T cell line
T cell line [14] = assay: Induction of apoptosis in BALB/c mouse T cell assessed as increase in Bax at >=1 uM by Western blot analysis; type: functional; details: dose microM >=1
[15] = Induction of apoptosis in Con A-induced BALB/c mouse T cell assessed as viable cells at 0.01 uM after 48 hrs by Annexin V-FITC/propidium iodide staining based FACS assay (reference value: 63.3%); type: functional, T cell line
T cell line [16] = assay: Induction of apoptosis in BALB/c mouse T cell assessed as increase in Bcl2 at >=1 uM by Western blot analysis; type: functional; details: dose microM >=1
T cell line [17] = assay: Induction of apoptosis in BALB/c mouse T cell assessed as assessed as increase in caspase 9 >=1 uM; type: functional, tissue-based; details: dose microM >=1
[18] = molecular target: Proto-oncogene tyrosine-protein kinase LCK (Mus musculus) (UniProt P06240); assay: Inhibition of LCK phosphorylation in Con-A induced BALB/c mouse T cell by Western blot analysis; type: tissue-based; details: T cell line
[19] = molecular target: T1, Tyrosine-protein kinase ZAP-70 (Mus musculus) (UniProt P43404); assay: Inhibition of ZAP70 phosphorylation in Con-A induced BALB/c mouse T cell by Western blot analysis; type: tissue-based; details: T cell line
T1 sequence (whole entry): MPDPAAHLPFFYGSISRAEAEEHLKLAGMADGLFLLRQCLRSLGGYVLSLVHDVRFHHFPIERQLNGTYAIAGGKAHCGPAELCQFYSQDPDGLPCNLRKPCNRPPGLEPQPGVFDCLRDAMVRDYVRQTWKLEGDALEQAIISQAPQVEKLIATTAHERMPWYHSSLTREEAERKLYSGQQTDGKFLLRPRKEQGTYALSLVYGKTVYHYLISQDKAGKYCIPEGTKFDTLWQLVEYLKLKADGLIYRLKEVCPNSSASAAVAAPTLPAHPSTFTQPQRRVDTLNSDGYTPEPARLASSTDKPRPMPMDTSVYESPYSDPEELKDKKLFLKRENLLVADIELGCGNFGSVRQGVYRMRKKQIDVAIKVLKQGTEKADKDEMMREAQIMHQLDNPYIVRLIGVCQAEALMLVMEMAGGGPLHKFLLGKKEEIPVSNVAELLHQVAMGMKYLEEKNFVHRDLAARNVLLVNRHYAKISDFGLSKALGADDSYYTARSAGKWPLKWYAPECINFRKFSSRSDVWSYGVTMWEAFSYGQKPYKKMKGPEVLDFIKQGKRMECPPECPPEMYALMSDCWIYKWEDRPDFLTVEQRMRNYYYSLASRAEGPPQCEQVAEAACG

[20] = Anti-inflammatory activity in BALB/c mouse T cell assessed as assessed as IL-2 level at 1 uM after 48 hrs by ELISA (reference value: 152.9 +/- 8.7 pg/ml); type: functional, T cell line
[21] = Antiproliferative activity against Con A-induced BALB/c mouse T cell after 48 hrs by CCK8 assay; type: functional, tissue-based, T cell line
[22] = Anti-inflammatory activity in BALB/c mouse T cell assessed as assessed as IL-4 level at 1 uM after 48 hrs by ELISA (reference value: 167.8 +/- 9.4 pg/ml); type: functional, T cell line
[23] = Induction of apoptosis in Con A-induced BALB/c mouse T cell assessed as late apoptotic cells at 0.01 uM after 48 hrs by Annexin V-FITC/propidium iodide staining based FACS assay (reference value: 7.3%); type: functional, T cell line
[24] = Induction of apoptosis in Con A-induced BALB/c mouse T cell assessed as late apoptotic cells at 1 uM after 48 hrs by Annexin V-FITC/propidium iodide staining based FACS assay (reference value: 7.3%); type: functional, T cell line
[25] = Induction of apoptosis in Con A-induced BALB/c mouse T cell assessed as necrotic cells at 1 uM after 48 hrs by Annexin V-FITC/propidium iodide staining based FACS assay (reference value: 2.9%); type: functional, T cell line
[26] = Anti-inflammatory activity in BALB/c mouse T cell assessed as assessed as TNF-alpha level at 1 uM after 48 hrs by ELISA (reference value: 375.8 +/- 19.6 pg/ml); type: functional, T cell line
[27] = Induction of apoptosis in Con A-induced BALB/c mouse T cell assessed as necrotic cells at 0.1 uM after 48 hrs by Annexin V-FITC/propidium iodide staining based FACS assay (reference value: 2.9%); type: functional, T cell line
T cell line [28] = assay: Induction of mitochondrial membrane disruption in BALB/c mouse T cell assessed as increase in cytochrome c release from mitochondria to cytosol at >=1 uM by Western blot analysis; type: functional; details: dose microM >=1
[29] = Induction of apoptosis in Con A-induced BALB/c mouse T cell assessed as late apoptotic cells at 0.1 uM after 48 hrs by Annexin V-FITC/propidium iodide staining based FACS assay (reference value: 7.3%); type: functional, T cell line
[30] = Induction of apoptosis in Con A-induced BALB/c mouse T cell assessed as viable cells at 1 uM after 48 hrs by Annexin V-FITC/propidium iodide staining based FACS assay (reference value: 63.3%); type: functional, T cell line
[31] = Induction of apoptosis in Con A-induced BALB/c mouse T cell assessed as viable cells at 0.1 uM after 48 hrs by Annexin V-FITC/propidium iodide staining based FACS assay (reference value: 63.3%); type: functional, T cell line

Sequence of Proto-oncogene tyrosine-protein kinase LCK (Mus musculus) (P06240 2-509 limits assumed): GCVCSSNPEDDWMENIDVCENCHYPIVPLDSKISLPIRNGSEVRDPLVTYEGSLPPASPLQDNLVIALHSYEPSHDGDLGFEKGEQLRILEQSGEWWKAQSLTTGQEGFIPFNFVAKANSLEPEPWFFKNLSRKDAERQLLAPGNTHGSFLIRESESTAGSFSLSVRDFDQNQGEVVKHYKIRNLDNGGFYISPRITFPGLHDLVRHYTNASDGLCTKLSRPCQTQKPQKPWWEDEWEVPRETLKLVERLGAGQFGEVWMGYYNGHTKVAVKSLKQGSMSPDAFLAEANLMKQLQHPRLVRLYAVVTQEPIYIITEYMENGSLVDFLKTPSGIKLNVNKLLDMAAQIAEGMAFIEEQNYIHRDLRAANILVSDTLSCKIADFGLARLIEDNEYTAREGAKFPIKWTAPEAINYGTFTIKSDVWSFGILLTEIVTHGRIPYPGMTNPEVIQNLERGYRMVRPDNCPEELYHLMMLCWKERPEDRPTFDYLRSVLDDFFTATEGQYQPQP

inhibition [18]: Dose-dependent effect
inhibition [19]: Dose-dependent effect
SMILES: CNC(=O)[C@]1(C)CC[C@]2(C)CC[C@]3(C)C4=CC=C5C(=CC(=O)C(O)=C5C)[C@]4(C)CC[C@@]3(C)[C@@H]2C1
Activity [1]: 27.9%
CC50 at 48 h [2]: 1200 nM
Activity [3]: 264.5 pg/mL
Activity (T cell line [4]): Active
Activity [5]: 79.1 pg/mL
Activity [6]: 135.2 pg/mL
Activity [7]: 78.2 pg/mL
Activity [8]: 204.1 pg/mL
Activity [9]: 43.6%
Activity [10]: 128.7 pg/mL
Activity [11]: 56%
Activity [12]: 1.7%
Ratio CC50/IC50 [13]: 47.7
Activity (T cell line [14]): Active
Activity [15]: 63.4%
Activity (T cell line [16]): Active
Activity (T cell line [17]): Active
Activity [20]: 51.1 pg/mL
IC50 [21]: 25 nM
Activity [22]: 39.1 pg/mL
Activity [23]: 7%
Activity [24]: 8.5%
Activity [25]: 1%
Activity [26]: 142.9 pg/mL
Activity [27]: 0.5%
Activity (T cell line [28]): Active
Activity [29]: 9.5%
Activity [30]: 34.5%
Activity [31]: 46.3%

SMILES: CC1=C(O)C(=O)C=C2C1=CC=C1[C@@]2(C)CC[C@@]2(C)[C@@H]3C[C@](C)(C(=O)OCCC(C)C)CC[C@]3(C)CC[C@]12C
CC50 at 48 h [2]: 1500 nM
Ratio CC50/IC50 [13]: 1.4
IC50 [21]: 1090 nM

SMILES: CC1=C(O)C(=O)C=C2C1=CC=C1[C@@]2(C)CC[C@@]2(C)[C@@H]3C[C@](C)(C(=O)OCCBr)CC[C@]3(C)CC[C@]12C
CC50 at 48 h [2]: 1100 nM
Ratio CC50/IC50 [13]: 1.6
IC50 [21]: 721 nM

SMILES: CC1=C(O)C(=O)C=C2C1=CC=C1[C@@]2(C)CC[C@@]2(C)[C@@H]3C[C@](C)(C(=O)OCc4ccc(F)cc4)CC[C@]3(C)CC[C@]12C
CC50 at 48 h [2]: 2000 nM
Ratio CC50/IC50 [13]: 1.4
IC50 [21]: 1460 nM

SMILES: CCCCOC(=O)[C@]1(C)CC[C@]2(C)CC[C@]3(C)C4=CC=C5C(=CC(=O)C(O)=C5C)[C@]4(C)CC[C@@]3(C)[C@@H]2C1
CC50 at 48 h [2]: 900 nM
Ratio CC50/IC50 [13]: 1.2
IC50 [21]: 739 nM

SMILES: CC1=C(O)C(=O)C=C2C1=CC=C1[C@@]2(C)CC[C@@]2(C)[C@@H]3C[C@](C)(C(=O)OCc4ccccc4Br)CC[C@]3(C)CC[C@]12C
CC50 at 48 h [2]: 1800 nM
Ratio CC50/IC50 [13]: 1.1
IC50 [21]: 1550 nM

SMILES: CC1=C(O)C(=O)C=C2C1=CC=C1[C@@]2(C)CC[C@@]2(C)[C@@H]3C[C@](C)(C(=O)N4CCCC4)CC[C@]3(C)CC[C@]12C
CC50 at 48 h [2]: 1900 nM
Ratio CC50/IC50 [13]: 3.4
IC50 [21]: 323 nM

SMILES: CC1=C(O)C(=O)C=C2C1=CC=C1[C@@]2(C)CC[C@@]2(C)[C@@H]3C[C@](C)(C(=O)OCc4cccc(Br)c4)CC[C@]3(C)CC[C@]12C
CC50 at 48 h [2]: 1800 nM
Ratio CC50/IC50 [13]: 1.7
IC50 [21]: 1070 nM

SMILES: CC1=C(O)C(=O)C=C2C1=CC=C1[C@@]2(C)CC[C@@]2(C)[C@@H]3C[C@](C)(C(=O)NCc4ccccc4)CC[C@]3(C)CC[C@]12C
CC50 at 48 h [2]: 800 nM
Ratio CC50/IC50 [13]: 2.1
IC50 [21]: 362 nM

SMILES: C#CCNC(=O)[C@]1(C)CC[C@]2(C)CC[C@]3(C)C4=CC=C5C(=CC(=O)C(O)=C5C)[C@]4(C)CC[C@@]3(C)[C@@H]2C1
CC50 at 48 h [2]: 1400 nM
Ratio CC50/IC50 [13]: 16.4
IC50 [21]: 112 nM

SMILES: CC1=C(O)C(=O)C=C2C1=CC=C1[C@@]2(C)CC[C@@]2(C)[C@@H]3C[C@](C)(C(=O)OCc4ccc(C(F)(F)F)cc4)CC[C@]3(C)CC[C@]12C
CC50 at 48 h [2]: 6700 nM
Ratio CC50/IC50 [13]: 1.4
IC50 [21]: 4870 nM

SMILES: CC1=C(O)C(=O)C=C2C1=CC=C1[C@@]2(C)CC[C@@]2(C)[C@@H]3C[C@](C)(C(=O)NCc4ccccc4C)CC[C@]3(C)CC[C@]12C
CC50 at 48 h [2]: 1100 nM
Ratio CC50/IC50 [13]: 3.6
IC50 [21]: 312 nM
